Common to all, as to assay type: cell-based, rat
Assay [1] concerns AKT (Ser 473). Nature of the assay: Western blot of AKT phosphorylation (Ser 473). The method, then:
For Western blot analysis proteins were separated on SDS-PAGE gels (4-12% resolving gel, Invitrogen), transferred to PVDF membranes (Roche) and blocked with Roti-Block® (Roth) for 1 hour. Membranes were incubated with primary antibodies overnight. The anti-AS160 antibody was from Upstate. Membranes were washed in TBST and incubated with the appropriate secondary horseradish peroxidase conjugated antibody (Santa Cruz). Immunoreactive bands were visualized with LumiLight (Roche) and detected with Lumi-lmager (Böhringer Ingelheim).
In order to examine tetracycline- and insulin-dependent expression of isoform2 of AS160 protein in L6-GLUT4myc cells containing AS160-like, a western blot analysis was performed. The expression of AS160-like protein was induced with 1 μg/ml doxycyclin for 48 hours as described above. Subsequently, the cells were stimulated with insulin (5 nM to 50 nM; Sanofi-Aventis) for 20 minutes. Cell extracts were prepared, separated via SDS-PAGE and transferred to a PVDF membrane as described above.
The AKT inhibitor Calb. had no effect on the phosphorylation of AKT (Ser 473) (FIG. 11A). […] Phosphorylation of AKT on Ser 473 was detected with a phospho-specific antibody from Biosource (Cat No.: 44-621G).
In general terms: Immunoblotting shows a protein as a band on a membrane.

Assay [2] deals with L6-GLUT4myc cells. Nature of the assay: Uptake of 2-deoxyglucose in L6-GLUT4myc cells with tet-inducible isoform2 of AS160. As for the experimental part:
For all examples […]T4myc cells containing isoform2 of AS160 were grown in MEMα (PAN) supplemented with 10% fetal calf serum (FCS) (PAA, tet-free), 2 μg/ml blasticidin (Calbiochem), 0.5 μg/ml puromycin (InvivoGen), 200 μg/ml hygromycin (Invitrogen). Expression of isoform2 of AS160 was induced with 1 μg/ml doxycyclin (Sigma). L6-wildtype (wt) (ATCC: CRL-1458) cells were grown in MEMα+GlutaMax (Gibco) supplemented with 10% FCS (PAA, tet-free) and 1% penicillin/streptomycin (PAA). […]T4myc cells were grown in MEMα+GlutaMax (Gibco) supplemented with 10% FCS (PAA, tet-free), 1% penicillin/streptomycin (PAA) and 2 μg/ml blasticidin (Calbiochem). All cells were grown at 37° C. and 5% CO2. […]T4myc cells containing isoform2 of AS160 were incubated in starve medium (MEMα) 3-4 hours prior to each experiment. To examine glucose uptake of the cells, the respective cells were plated in 96 well Cytostar-T scintillating microplates (Amersham). After 48 hours cells were serum-starved (3-4 hours) and treated with inhibitors as indicated. Uptake of 2-deoxyglucose (0.01 MBq per well, Amersham) was performed as already described (Voss et al., 2005). Nonspecific uptake was determined in the presence of 40 μM cytochalasin B (Calbiochem). This value was subtracted from all other values. Measurement occurred in a Wallac Microbeta counter (Perkin Elmer). Uptake of 2-deoxyglucose is presented as counts per […] (cpm).

Assay [3] has as its system L6-GLUT4myc cells. Nature of the assay: Tetracycline-inducible GFP expression (functionality of the tet-repressor). As to conditions: pCDNA5/TO-GFP; addition of doxycyclin; data not shown. As for the experimental part: L6-GLUT4myc cells containing AS160-like were grown in MEMα (PAN) supplemented with 10% fetal calf serum (FCS) (PAA, tet-free), 2 μg/ml blasticidin (Calbiochem), 0.5 μg/ml puromycin (InvivoGen), 200 μg/ml hygromycin (Invitrogen). Functionality of the tet-repressor was controlled with a tetracycline-inducible GFP expression plasmid (pCDNA5/TO-GFP). In the absence of tetracycline (or doxycyclin) only a small number of cells express GFP. Addition of doxycyclin increases the number of GFP expressing cells about 10 fold (data not shown).

The next assay has as its system AS160 (Thr 642). Nature of the assay: In-cell western, phospho-AS160. An excerpt:
(§1) To study phosphorylation of AKT and AS160 the cells described in Example 2 were used. AS160 is activated by phosphorylation on critical motifs (RXRXXS/T). Known phospho-sites in AS160 are Ser 570, Ser 588, Thr 642 and Thr 751 (Sano et al., 2003). One of the kinases responsible for the activation of AS160 is AKT (Kane et al., 2002). In order to determine the activation status of the isoform2 of AS160 the In-cell western blot technique was used. This method allows the detection of specific proteins directly in 96 well plates without preparation of cell extracts. The specific antibody used in this assay recognizes the phosphorylated Thr 642 phosphorylation site of AS160 and AS160-like protein.
(§2) For this, cells were seeded into 96-well plates (black, Nunc) and grown for 48 hours. Cells were starved for 3-4 hours with MEMα (PAN) containing 2% horse serum (Cambrex). After removal of medium cells were fixed in 3.7% freshly prepared para-formaldehyde (Sigma) for 20 minutes. Cells were permeabilized with PBS+0.1% Triton-X-100. Blocking was performed with Odyssey blocking buffer (Licor) overnight at 4° C. Primary antibodies were incubated for 2 hours at room temperature. The anti-phosphoAKT (Ser 473, Cat No.: 44-621 G) and the anti-phosphoAS160 (Thr 642, Cat No.: 44-1071 G) were from Biosource. After incubation of the primary antibody, cells were washed with PBS+0.1% Tween20. The secondary anti-rabbit-IgG-800-CW antibody (Rockland Cat No.: 611-131-122) was incubated for 1 hour. For detection of DNA TO-PRO3 dye (Molecular Probes, Cat No.: T3605) was used. Fluorescence signals (FIG. 6) are presented as relative units (RU).

In assay [4] the test system is AKT (Ser 473). Nature of the assay: In-cell western, phospho-AKT.
Description: as §1, §2

The test system of the next assay is GLUT4. Nature of the assay: GLUT4 translocation, laser-scanning fluorescence microplate cytometry (ACUMEN). As for the experimental part:
For this purpose, a technique suitable for screening of compounds was applied. Laser-scanning fluorescence microplate cytometry (ACUMEN technique, LIT) allows the distinct multiparametric analysis of single fluorescent cells in microplates (Bowen and Wylie, 2006). For laser-scanning fluorescence microplate cytometer (Acumen) cells were plated in 96 well plates (Biocat, black). Serum-starved cells were treated as indicated. Briefly, cells were fixed in 3.75% para-formaldehyde (Sigma) for 20 minutes. Subsequently, quenching occurred with […] NH4Cl. Cells were blocked with an adequate blocking solutions for a minimum of 1 hour. Primary antibody (monoclonal anti-myc 9E10, Santa Cruz, sc-40) was incubated for 1 hour. The secondary goat-anti mouse IgG (Alexa Fluor 488, Molecular Probes) was incubated in the presence of Sytox-orange for 1 hour (Bowen and Wylie, 2006).
Based on this highly sensitive procedure it is possible to screen various cell numbers for plasma-membrane based GLUT4-myc-display. Cells were counter-stained with a DNA dye (SytoxOrange) to confirm equal cell numbers.

The subject of a further assay is GLUT4-myc. Nature of the assay: Immunofluorescence localization of GLUT4-myc. As to conditions: insulin 100 nM, 20 minutes; L6-GLUT4-myc-tetR-AS160-like. As for the experimental part:
Cells were grown on sterile cover slides in 12 well plates. Expression of isoform2 of AS160 was induced with doxycyclin treatment for 48 hours. Serum-starved cells were treated with 100 nM insulin for 20 minutes or were left untreated. After stimulation, cells were fixed in 3.75% para-formaldehyde (Sigma) for 20 minutes. Subsequently, cells were permeabilised with 0.1% TritonX100 in PBS (Icon Biomedicals) or left unpermeabilised (as indicated) for 5 minutes at room temperature. The permeabilisation procedure allows the detection of intracellular localized compartments. Membrane-bound proteins are visualized without permeabilising the cells. Blocking of cells occurred for a minimum of 1 hour in PBS+1% BSA (USB). Primary antibodies (monoclonal anti-myc, Santa Cruz, sc-40 and polyclonal anti-AS160 Upstate) were incubated overnight. The secondary antibodies used are anti-rabbit Alexa488 to detect isoform2 of AS160 and anti-mouse A546 to detect GLUT4-myc. Incubation occurred is for 1 hour (dark). Cells were mounted in 15 μl Dako Cytomation Fluorescent Mounting Medium (DakoCytomation), examined by confocal laser-scanning microscopy with Leica DM IRE2 and analyzed with Leica DM SDK software.

Setting [5] is: without expression of isoform 2 of AS160.
[6] abbreviates: metformin 800 μM overnight, normal and insulin-resistant conditions.
Setting [7] is: with doxycyclin-induced expression of isoform 2 of AS160.
Setting [8] is: high glucose plus insulin conditions.
The mark [9] stands for this setting: high glucose plus insulin overnight (25 mM glucose+10 nM insulin).

Consider “1 L-6-hydroxymethyl-chiro-inositol 2-(R)-2-O-methyl-3-O-octadecylcarbonate [AKT inhibitor Calb., reference compound]”, for which the “effect on insulin-stimulated phosphorylation of AKT (Ser 473)” value in the assay on AKT (Ser 473) [1] (pre-incubation 1 hour (wortmannin 200 nM, AKT inhibitor Calb. 50 μM), then insulin 10 nM 20 minutes) is “no effect”.
Regarding `NC(=O)c1ncn([C@@H]2O[C@H](CO)[C@@H](O)[C@H]2O)c1N` [AICAR, 5-Aminoimidazole-4-carboxaide 1-beta-D-ribofuranoside, reference compound], the “effect of expression of isoform 2 of AS160 on stimulated glucose uptake” value with L6-GLUT4myc cells [2] (with vs without isoform 2 of AS160) was “no additional effect”. The “uptake of glucose (2-deoxyglucose), fold increase after stimulation” value (from here on “uptake … fold increase after stimulation”) with L6-GLUT4myc cells [2] (setting [5]) is listed as 1.5 fold.
Regarding `N#CC(=C(/N)Sc1ccccc1N)/C(C#N)=C(\N)Sc1ccccc1N` [U0126, reference compound], the “effect on uptake of glucose” value with L6-GLUT4myc cells [2] (U0126 10 μM, 20 μM, additional stimulation with 5 nM insulin, mainly in cells expressing isoform2 of AS160) is “significantly improved uptake of glucose”.
Take `C[C@H]1c2cccc(O)c2C(O)=C2C(=O)[C@]3(O)C(O)=C(C(N)=O)C(=O)[C@@H](N(C)C)[C@@H]3[C@@H](O)[C@@H]21` [doxycyclin, reference compound]: in the assay on L6-GLUT4myc cells [2] (doxycyclin 48 hours, insulin 20 minutes, correlated with isoform2 of AS160 protein levels), the “increase of glucose uptake induced by doxycyclin” value is on record as “dose-dependent manner”. The “increase of the number of GFP expressing cells” value in the assay with L6-GLUT4myc cells [3] was “about 10 fold”.
For `CN(C)C(=N)N=C(N)N` [metformin, dimethylbiguanide, reference compound], the “effect on activation of AS160” value with AS160 (Thr 642) (setting [6]) is on record as “no effect”. Further, the “effect on activation of AKT” value in the assay on AKT (Ser 473) [4] (setting [6]) was “no effect”.
As for insulin, the “time at which the maximum of glucose uptake is observed” value with L6-GLUT4myc cells [2] (50 nM insulin, time points 5, 15, 30 minutes) is at most 5 min. The “uptake … fold increase after stimulation” value with L6-GLUT4myc cells [2] (setting [7]) is given as “up to 4 fold”. Moreover, in the assay on AS160 (Thr 642) (setting [8]), the “AS160 phosphorylation signal compared to untreated conditions (normal Glc)” value was determined as 72%. For the same molecule, in the assay on AS160 (Thr 642) (setting [9]), the “AS160 (Thr 642) phosphorylation under insulin-resistant conditions” value is on record as “dose-dependent manner”. For the same molecule, the “phosphorylation of full-length or isoform2 of AS160 (Thr 642)” value in the assay on AS160 (Thr 642) (normal conditions, doxycyclin-induced cells, insulin 20 minutes) was “dose-dependent manner”. For the same molecule, the “increased translocation of GLUT4 to the plasma membrane” value in the assay on GLUT4 (100 nM insulin 20 minutes, doxycyclin-induced expression of AS160-like protein) is listed as around 15%. Also, the GLUT4 translocation result in the assay with GLUT4 (100 nM insulin alone (no AS160-like expression)) is given as “slightly induced”. Also, the “localization of GLUT4-myc” value with GLUT4-myc is “induces the translocation of GLUT4-myc to the plasma membrane”. Also, the “AKT phosphorylation signal compared to untreated conditions (normal Glc)” value in the assay with AKT (Ser 473) [4] (setting [8]) came to 72%. In addition, in the assay with AKT (Ser 473) [4] (setting [9]), the “AKT (Ser 473) phosphorylation under insulin-resistant conditions” value is reported as “dose-dependent manner”. In the assay with AKT (Ser 473) [4] (normal conditions, insulin 20 minutes), the “AKT phosphorylation (Ser 473)” value was “dose-dependent manner”. Moreover, the “phosphorylation of AKT (Ser 473)” value in the assay on AKT (Ser 473) [1] (insulin 5 nM to 50 nM, 20 minutes) is listed as “induced the phosphorylation of AKT (Ser 473)”.
As for insulin like growth factor-1 [IGF-1], the figures for the “uptake … fold increase after stimulation” value in the assay on L6-GLUT4myc cells [2] (setting [7]) and in the assay on L6-GLUT4myc cells [2] (setting [5]) were “up to 5 fold” and 3 fold, respectively.
